Measured values reported in US6583120B1, “Erythromycin derivative with antibiotic activity” (Zambon Group S.A., priority 1998, dated 2003).
Converted amounts (≈) assume the structure as drawn.

Experiments:
[1] = system: Streptococcus pneumoniae UC 41; assay: In vivo therapeutic efficacy (PD50), experimental pulmonary infection in mice; settings: pulmonitis
[2] = system: Streptococcus pyogenes C 203; assay: as above; settings: for PD50: mice, pulmonary infection
[3] = system: Haemophilus influenzae; assay: In vitro antibacterial activity (MIC), Gram-negative; settings: for MIC Range: 11 strains tested; for MIC50 / MIC90: Haemophilus influenzae
[4] = system: Branhamella catarrhalis; assay: as above; settings: for MIC Range: 5 strains tested; for MIC50 / MIC90: Moraxella catarrhalis
[5] = system: Klebsiella pneumoniae; assay: as above; settings: for MIC Range: 6 strains tested; for MIC50 / MIC90: Klebsiella pneumoniae
[6] = system: Escherichia coli; assay: as above; settings: 3 strains tested
[7] = system: Streptococcus pneumoniae; assay: In vitro antibacterial activity (MIC), erythromycin-sensitive strains; settings: for MIC Range: 18 strains tested, erythromycin-sensitive; for MIC50 / MIC90: Streptococcus pneumoniae
[8] = system: Streptococcus group A; assay: as above; settings: for MIC Range: 15 strains tested, erythromycin-sensitive
[9] = system: Streptococcus agalactiae; assay: as above; settings: for MIC Range: 4 strains tested, erythromycin-sensitive; for MIC50 / MIC90: Streptococcus agalactiae
[10] = system: Staphylococcus aureus; assay: as above; settings: for MIC Range: 13 strains tested, erythromycin-sensitive; for MIC50 / MIC90: Staphylococcus aureus
[11] = system: recently clinically isolated, erythromycin-resistant strains of Streptococcus pneumoniae; assay: In vitro antibacterial activity (MIC), broth-scalar dilution micromethod, erythromycin-resistant clinical isolates; settings: 18 h, 37° C.
[12] = oral single dose 24 hours before the infection
[13] = oral single dose 48 hours before the infection
[14] = oral single dose 1 hour after the infection
[15] = oral single dose 72 hours before the infection
[16] = Strain 871, erythromycin-resistant
[17] = Strain 1035, erythromycin-resistant
[18] = Strain 1047, erythromycin-resistant
[19] = Strain 1051, erythromycin-resistant
[20] = Strain 1188, erythromycin-resistant
[21] = Strain 1392, erythromycin-resistant
[22] = Strain 9114, erythromycin-resistant
[23] = Strain 9117, erythromycin-resistant

Row | SMILES | PD50 [2, 14] | MIC Range [3] | MIC Range [4] | MIC50 [4] | MIC90 [4] | MIC Range [5] | MIC50 [5] | MIC90 [5] | MIC Range [7] | MIC50 [7] | MIC90 [7] | MIC50 [8] | MIC90 [8] | MIC Range [8] | MIC Range [9] | MIC50 [9] | MIC90 [9] | MIC Range [10] | MIC50 [10] | MIC90 [10] | also measured
1 | CC[C@H]1OC(=O)[C@H](C)[C@@H](OC2CC(C)(OC)C(O)C(C)O2)[C@H](C)[C@@H](OC2OC(C)CC(N(C)C)C2O)[C@](C)(O)C[C@@H](C)/C(=N\OCCNCCCCCCNCc2nccs2)[C@H](C)[C@@H](O)[C@]1(C)O (stereo partly shown) [Compound A] | 15.45 µmol/kg | 1 to 8 µg/mL | 0.0019 to 0.125 µg/mL | 0.125 µg/mL (≈ 0.126 µM) | 0.125 µg/mL (≈ 0.126 µM) | 16 to 32 µg/mL | 16 µg/mL (≈ 16.2 µM) | 32 µg/mL (≈ 32.4 µM) | 0.0019 to 0.25 µg/mL | 0.0039 µg/mL (≈ 0.00395 µM) | 0.0156 µg/mL (≈ 0.0158 µM) | 0.0156 µg/mL (≈ 0.0158 µM) | 0.0312 µg/mL (≈ 0.0316 µM) | 0.0078 to 0.5 µg/mL | 0.0078 to 0.25 µg/mL | 0.0156 µg/mL (≈ 0.0158 µM) | 0.25 µg/mL (≈ 0.253 µM) | 0.25 to 1 µg/mL | 0.5 µg/mL (≈ 0.506 µM) | 0.5 µg/mL (≈ 0.506 µM) | PD50 [1, 12]: 16.39 µmol/kg; PD50 [1, 13]: 25.90 µmol/kg; therapeutic efficacy (duration of action in vivo), in words ([2]; 72 hours after administration): still effective; PD50 [2, 12]: 16.39 µmol/kg; PD50 [2, 13]: 25.90 µmol/kg; PD50 [2, 15]: 31.51 µmol/kg; MIC50 [3]: 4 µg/mL (≈ 4.05 µM); MIC90 [3]: 4 µg/mL (≈ 4.05 µM); MIC Range [6]: 1 to 8 µg/mL; MIC [11, 16]: 0.5 µg/mL (≈ 0.506 µM); MIC [11, 17]: 2 µg/mL (≈ 2.02 µM); MIC [11, 18]: 2 µg/mL (≈ 2.02 µM); MIC [11, 19]: 1 µg/mL (≈ 1.01 µM); MIC [11, 20]: 2 µg/mL (≈ 2.02 µM); MIC [11, 21]: 4 µg/mL (≈ 4.05 µM); MIC [11, 22]: 0.25 µg/mL (≈ 0.253 µM); MIC [11, 23]: 0.25 µg/mL (≈ 0.253 µM)
2 | CC[C@H]1OC(=O)[C@H](C)[C@@H](O[C@H]2C[C@@](C)(OC)[C@@H](O)[C@H](C)O2)[C@H](C)[C@@H](O[C@@H]2O[C@H](C)C[C@H](N(C)C)[C@H]2O)[C@](C)(O)C[C@@H](C)CN(C)[C@H](C)[C@@H](O)[C@]1(C)O [Azithromycin] | 5.32 µmol/kg | 0.25 to 1 µg/mL | 0.0078 to 0.0156 µg/mL | 0.0156 µg/mL (≈ 0.0208 µM) | 0.0156 µg/mL (≈ 0.0208 µM) | 4 to 8 µg/mL | 4 µg/mL (≈ 5.34 µM) | 8 µg/mL (≈ 10.7 µM) | 0.0156 to 0.5 µg/mL | 0.0312 µg/mL (≈ 0.0417 µM) | 0.0625 µg/mL (≈ 0.0834 µM) | 0.0625 µg/mL (≈ 0.0834 µM) | 0.125 µg/mL (≈ 0.167 µM) | 0.0625 to 1 µg/mL | 0.0312 to 0.25 µg/mL | 0.0625 µg/mL (≈ 0.0834 µM) | 0.25 µg/mL (≈ 0.334 µM) | 0.5 to 1 µg/mL | 0.5 µg/mL (≈ 0.668 µM) | 1 µg/mL (≈ 1.34 µM) | PD50 [1, 12]: 16.45 µmol/kg; PD50 [1, 13]: 34.13 µmol/kg; therapeutic efficacy (duration of action in vivo), in words ([2]; 72 hours after administration): lose most of their efficacy; PD50 [2, 12]: 16.45 µmol/kg; PD50 [2, 13]: 34.13 µmol/kg; PD50 [2, 15]: >85.4 µmol/kg; MIC50 [3]: 0.5 µg/mL (≈ 0.668 µM); MIC90 [3]: 1 µg/mL (≈ 1.34 µM); MIC Range [6]: 2 to 4 µg/mL; MIC [11, 16]: 2 µg/mL (≈ 2.67 µM); MIC [11, 17]: 2 µg/mL (≈ 2.67 µM); MIC [11, 18]: 4 µg/mL (≈ 5.34 µM); MIC [11, 19]: 64 µg/mL (≈ 85.4 µM); MIC [11, 20]: 8 µg/mL (≈ 10.7 µM); MIC [11, 21]: 16 µg/mL (≈ 21.4 µM); MIC [11, 22]: 32 µg/mL (≈ 42.7 µM); MIC [11, 23]: 64 µg/mL (≈ 85.4 µM)
3 | CC[C@H]1OC(=O)[C@H](C)[C@@H](O[C@H]2C[C@@](C)(OC)[C@@H](O)[C@H](C)O2)[C@H](C)[C@@H](O[C@@H]2O[C@H](C)C[C@H](N(C)C)[C@H]2O)[C@](C)(O)C[C@@H](C)/C(=N\OCOCCOC)[C@H](C)[C@@H](O)[C@]1(C)O [Roxithromycin] | – | 4 to 16 µg/mL | 0.0312 to 0.0625 µg/mL | 0.0312 µg/mL (≈ 0.0373 µM) | 0.0625 µg/mL (≈ 0.0747 µM) | >64 µg/mL | > 64 µg/mL | > 64 µg/mL | 0.0156 to 0.5 µg/mL | 0.0625 µg/mL (≈ 0.0747 µM) | 0.0625 µg/mL (≈ 0.0747 µM) | 0.0625 µg/mL (≈ 0.0747 µM) | 0.0625 µg/mL (≈ 0.0747 µM) | 0.0312 to 1 µg/mL | 0.0625 to 0.25 µg/mL | 0.125 µg/mL (≈ 0.149 µM) | 0.25 µg/mL (≈ 0.299 µM) | 0.25 to 1 µg/mL | 0.5 µg/mL (≈ 0.597 µM) | 1 µg/mL (≈ 1.19 µM) | MIC50 [3]: 8 µg/mL (≈ 9.56 µM); MIC90 [3]: 8 µg/mL (≈ 9.56 µM)
4 | CC[C@H]1OC(=O)[C@H](C)[C@@H](O[C@H]2C[C@@](C)(OC)[C@@H](O)[C@H](C)O2)[C@H](C)[C@@H](O[C@@H]2O[C@H](C)C[C@H](N(C)C)[C@H]2O)[C@](C)(OC)C[C@@H](C)C(=O)[C@H](C)[C@@H](O)[C@]1(C)O [Clarithromycin] | 7.38 µmol/kg | 2 to 8 µg/mL | 0.0078 to 0.0156 µg/mL | 0.0156 µg/mL (≈ 0.0209 µM) | 0.0156 µg/mL (≈ 0.0209 µM) | 64 µg/mL (≈ 85.6 µM) | 64 µg/mL (≈ 85.6 µM) | 64 µg/mL (≈ 85.6 µM) | 0.0039 to 0.125 µg/mL | 0.0156 µg/mL (≈ 0.0209 µM) | 0.0156 µg/mL (≈ 0.0209 µM) | 0.0156 µg/mL (≈ 0.0209 µM) | 0.0156 µg/mL (≈ 0.0209 µM) | 0.0078 to 0.25 µg/mL | 0.0156 to 0.0625 µg/mL | 0.0312 µg/mL (≈ 0.0417 µM) | 0.0625 µg/mL (≈ 0.0836 µM) | 0.125 to 0.25 µg/mL | 0.25 µg/mL (≈ 0.334 µM) | 0.25 µg/mL (≈ 0.334 µM) | therapeutic efficacy (duration of action in vivo), in words ([2]; administered 24 hours before the infection): lose most of their efficacy; PD50 [2, 12]: >85.6 µmol/kg; MIC Range [6]: 16 to 64 µg/mL
